# Several values for one entry are separate records, joined by “and”; a condition that tells them apart may be missing. Equal values may be shown once.
# Legend:
# [1] = test system: H2087 lung carcinoma cells; test: Colony formation assay, H2087; format: cell-based, human; details: decitabine 220 nM and/or genistein 5 μM, 24 h, mean ± S.D., relative to untreated cells
# Experimental: (§1) Cell lines and drug exposure. Human myeloid (HL-60) and lymphoid (MOLT-3) leukemic cells were obtained from ATCC (ATCC #: CRL-1552; Manassas, Va. USA). MBA-MD-231 and Dld-1 cells were also used. Human cell lines were cultured in RPMI-1640 medium (Invitrogen, Burlington, Ontario) supplemented with 10% heat-inactivated fetal bovine serum (Wisent, St-Bruno, Quebec). The doubling times of HL-60 and MOLT-3 were 16-18 h and 23-24 h, respectively, whereas for both MBA-MD-231 and Dld-1 cells it was 24-27 h. The murine lymphoid leukemic cell line L1210 (ATCC #: CCL-219; Brandes et al., (1966). J Natl Cancer Inst. 37(4): 467-85) was cultured in RPMI-1640 with 5% heat-inactivated fetal calf serum and with 6 μM of 2-mercaptoethanol. The doubling time of the L1210 cells was about 10 h. From this cell line, a clone fully resistant to […], identified herein as L1210/ARAC, was generated after exposure of increasing doses of cytosine arabinoside for a period of 3 months (Schabel et al., (1984). Cancer Treat. Rep 67: 905-922). The doubling time of the L1210/ARAC cells was about 12 h. Human lung adenocarcinoma cells H2087, and Calu-6 non-small cell lung cancer cells, were obtained from ATCC (ATCC #: CRL-5922; Manassas, Va. USA) and cultured in DMEM and RPMI without HEPES, respectively. The cells were trypsinized with 0.25% Trypsin-EDTA (Invitrogen, Grand Island, N.Y.). The doubling time of the H2087 cells was about 35 h. Cell lines were incubated at 37° C. in 5% CO2 atmosphere.
# (§2) Genistein (LC Laboratories, Woburn, Mass.) was dissolved in DMSO (Sigma, Oakville, Ontario) to prepare stock solutions of 2 and 20 mM and kept frozen at −20° C. until use. Decitabine (DAC, Dacogen™, 5-aza-2′-deoxycytidine) at 1000 μg/ml in PBS was kept at −80° C. Before each experiment, Decitabine was diluted at 1 μg/ml (for murine leukemic cell lines), 10 μg/ml (for human leukemic cells), or 100 μg/ml (for lung carcinoma cells) with sterile PBS and kept on ice until use.
# For human lung carcinoma H2087 cells, 100 cells were placed in wells of a 6-well dish (day 0); for Calu-6, MBA-MD-231 and Dld-1, 200 cells were seeded. On day 1, Decitabine (50 ng/ml) and genistein (5 μM) were added concomitantly to the cells for 24 h. Drugs were then removed and wells were rinsed with 1 ml of medium. Fresh medium (2 ml) was added and after 16-19 d colonies were stained with 0.5% methylene blue in 50% methanol and counted. The inhibition/loss of clonogenicity (%) was expressed relative to control (untreated) cells. The experiments were repeated three times and expressed as mean±S.D or mean±SEM for Calu-6, MBA-MD-231 and Dld-1 cells.
# (§3) Statistical analyses. […] The p value was evaluated accordingly to Tukey's method (Hastings, C et al. (1947). Ann. Math. Statist. 18,413-426). […]
# [2] = test system: HL-60 myeloid human leukemic cells; test: Inhibition/loss of clonogenicity in soft agar, HL-60; format: cell-based; details: 48 h
# Experimental: as §1
# (§4) Genistein (LC Laboratories, Woburn, Mass.) was dissolved in DMSO (Sigma, Oakville, Ontario) to prepare stock solutions of 2 and 20 mM and kept frozen at −20° C. until use. Decitabine (DAC, Dacogen™, 5-aza-2′-deoxycytidine) at 1000 μg/ml in PBS was kept at −80° C. […]
# (§5) Inhibition of clonogenicity. […] After 7 d of incubation for murine cell lines or 15 d for human cell lines, the number of colonies (>50 cells) was counted. […] The experiments were repeated three times and expressed as mean±S.E.M.
# as §3
# L1210 leukemic cells = test: Survival of CD2F1 mice bearing L1210 leukemia; format: in vivo; details: i.v. 10^4 L1210 cells; for Increase in life span (%): 0.5% genistein in diet and/or DAC 2 mg/kg 8 h i.v. infusion on day 1
# Experimental: In vivo experiments. Male CD2F1 mice (24-28 g) were purchased from Taconic Biotechnology (Germantown, N.Y., USA). Mice were acclimatized to housing conditions at least 2 weeks before experiments. They received food and water ad libitum. […] Seven days later, the ascetic fluid was obtained from the mice and a cell count of the leukemic cells was performed with a haemocytometer prior to subsequent transplantation. Mice were injected intravenously (i.v.) with 0.1 ml of L1210 or L1210/ARAC (10^4) cells. […] Mice were acclimated to the genistein-enriched regimen over a 10-days period before injection of leukemic cells. A Harvard apparatus compact infusion pump was used at a flow rate of 0.22 ml/h via 25-gauge needle into the lateral tail vein. DAC was given at 2 mg/kg for 8 h. Decitabine was prepared fresh before each experiment, dissolved in ½ PBS and sterilized by 0.2 μm filtration. Mice were placed in a restrainer cage during treatment with access to food. Toxicity was evaluated by body weight loss. Mice fed with genistein-enriched diet kept the same regimen during all the experiment. The survival time of each group of mice was monitored and the increased in life span (ILS) calculated.
# Statistical analyses. In order to evaluate whether the inter-group variations were random, one-way ANOVA testing was performed. […] A p value≦0.05 was taken for statistical significance.
# [3] = test system: L1210 murine lymphoid leukemic cells; test: Inhibition/loss of clonogenicity in soft agar, L1210; format: cell-based
# Experimental: as §1, §2
# Inhibition of clonogenicity. It is known that cancer cells form clones in soft agar (clonogenicity). Irreversible eradication of the clonogenicity of cancer stem cells is one of the objectives of chemotherapy since it is related to cell proliferation potential. Human and murine leukemic cell lines in log phase at 5×10^4 cells/ml were placed in tissue culture flasks and exposed to the drug combinations for 48 and 24 h respectively. […] After 7 d of incubation for murine cell lines or 15 d for human cell lines, the number of colonies (>50 cells) was counted. […] The experiments were repeated three times and expressed as mean±S.E.M.
# as §3
# [4] = test system: human lung carcinoma cell line (CALU-6); test: Colony formation assay, CALU-6; format: cell-based
# Experimental: as §1, with “atmosphere. […]” for “atmosphere.”
# For human lung carcinoma H2087 cells, 100 cells were placed in wells of a 6-well dish (day 0); for Calu-6, MBA-MD-231 and Dld-1, 200 cells were seeded. […] Fresh medium (2 ml) was added and after 16-19 d colonies were stained with 0.5% methylene blue in 50% methanol and counted. […] The experiments were repeated three times and expressed as mean±S.D or mean±SEM for Calu-6, MBA-MD-231 and Dld-1 cells.
# as §3
# [5] = test system: L1210/ARAC leukemic cells; test: Survival of CD2F1 mice bearing L1210/ARAC leukemia; format: in vivo; details: i.v. 10^4 L1210/ARAC cells, 0.5% genistein in diet and/or DAC 2 mg/kg 8 h i.v. infusion on day 1
# Experimental: In vivo experiments. Male CD2F1 mice (24-28 g) were purchased from Taconic Biotechnology (Germantown, N.Y., USA). Mice were acclimatized to housing conditions at least 2 weeks before experiments. They received food and water ad libitum. For transplantation of leukemia cells in mice, intraperitonal (i.p.) injections of 10^4 L1210 or L1210/ARAC cells in RPMI-1640 medium were performed weekly into the CD2F1 mice. Seven days later, the ascetic fluid was obtained from the mice and a cell count of the leukemic cells was performed with a haemocytometer prior to subsequent transplantation. Mice were injected intravenously (i.v.) with 0.1 ml of L1210 or L1210/ARAC (10^4) cells. Control groups that received the control diet 2016 (Teklad Global 16% Protein Rodent Diet™; Harlan Teklad, Madison Wis.) were either treated or not with DAC. To test the effect of genistein in the diet, mice were fed with 2016 diet supplemented with 0.5% genistein (Harlan Teklad) and treated with either DAC or the vehicle alone. Mice were acclimated to the genistein-enriched regimen over a 10-days period before injection of leukemic cells. A Harvard apparatus compact infusion pump was used at a flow rate of 0.22 ml/h via 25-gauge needle into the lateral tail vein. DAC was given at 2 mg/kg for 8 h. Decitabine was prepared fresh before each experiment, dissolved in ½ PBS and sterilized by 0.2 μm filtration. Mice were placed in a restrainer cage during treatment with access to food. Toxicity was evaluated by body weight loss. Mice fed with genistein-enriched diet kept the same regimen during all the experiment. The survival time of each group of mice was monitored and the increased in life span (ILS) calculated.
# Statistical analyses. In order to evaluate whether the inter-group variations were random, one-way ANOVA testing was performed. The p value was evaluated accordingly to Tukey's method (Hastings, C et al. (1947). Ann. Math. Statist. 18,413-426). A p value≦0.05 was taken for statistical significance. Valeriote and Lin's method (Valeriote, F and Lin, H. S. 1975. Cancer Chemother. Rep. 59(5): 895-900) was used to determine if the interaction observed between drugs in the clonogenic assays was additive, synergistic or antagonistic.
# [6] = test system: MOLT-3 lymphoid human leukemic cells; test: Inhibition/loss of clonogenicity in soft agar, MOLT-3; format: cell-based; details: 48 h
# Experimental: as §1, §4, §5, §3
# [7] = test system: L1210/ARAC cells (DAC-resistant clone of L1210); test: Inhibition/loss of clonogenicity in soft agar, L1210/ARAC; format: cell-based, murine; details: alone or with DAC 4.4 nM
# Experimental: as §1, with “The doubling time of the L1210/ARAC cells was about 12 h. Human lung adenocarcinoma cells H2087, and Calu-6 non-small cell lung cancer cells, were obtained from ATCC (ATCC #: CRL-5922; Manassas, Va. USA) and cultured in DMEM and RPMI without HEPES, respectively. The cells were trypsinized with 0.25% Trypsin-EDTA (Invitrogen, Grand Island, N.Y.). The doubling time of the H2087 cells was about 35 h. Cell lines were incubated at 37° C. in 5% CO2 atmosphere.” left out
# as §5, §3
# [8] = DAC 44 nM alone, relative to control cells
# [9] = genistein 0.1 μM, alone or with DAC 44 nM
# [10] = genistein 1 μM, alone or with DAC 44 nM
structure (smiles),measurement,setting,value
"Nc1ncn([C@H]2C[C@H](O)[C@@H](CO)O2)c(=O)n1 [DAC, 4-Amino-1-(2-deoxy-β-D-ribofuranosyl)-1,3,5-triazin-2(1H)-one, reference compound]",Loss of clonogenicity (%),[1],60%
same,Loss of clonogenicity (%),[1]; listed as Decitabine,60 ± 4.1%
same,loss of clonogenicity,[2]; [8],20% and 17%
same,Increase in life span (%),L1210 leukemic cells,66.8%
same,loss of clonogenicity,"[3]; DAC 4.4 nM alone, relative to control cells",28%
same,loss of clonogenicity,"[3]; DAC 4.4 nM alone, relative to control cells, listed as Decitabine",about 30%
same,Loss of clonogenicity (%),[4]; decitabine 10 ng/ml alone,36.6%
same,Increase in life span (%),[5],−2.3%
same,Survival time,[5],9.42 ± 0.50 days
same,loss of clonogenicity,[6]; [8],40% and 37%
O=c1c(-c2ccc(O)cc2)coc2cc(O)cc(O)c12 [genistein],loss of clonogenicity,[7]; genistein 0.1 μM,2%
same,loss of clonogenicity,[7]; genistein 1 μM,11%
same,Loss of clonogenicity (%),[1],3.8%
same,Loss of clonogenicity (%),[1]; listed as Genistein,3.8 ± 9.4%
same,loss of clonogenicity,[2]; [9],1%
same,loss of clonogenicity,[2]; [10],15%
same,Increase in life span (%),L1210 leukemic cells,7.0. (p < 0.001) %
same,survival time after injection of leukemia,L1210 leukemic cells; 0.5% genistein-enriched diet,7.85 ± 0.10 days
same,loss of clonogenicity,"[3]; genistein 0.1 μM, alone or with DAC 4.4 nM",2%
same,loss of clonogenicity,"[3]; genistein 1 μM, alone or with DAC 4.4 nM",13%
same,Loss of clonogenicity (%),"[4]; genistein 0.1 μM, alone or with decitabine 10 ng/ml",4.9%
same,Loss of clonogenicity (%),"[4]; genistein 10 μM, alone or with decitabine 10 ng/ml",31.7%
same,Increase in life span (%),[5],7.88%
same,Survival time,[5],10.39 ± 1.01 days
same,loss of clonogenicity,[6]; [9],1%
same,loss of clonogenicity,[6]; [10],12%

# Reference: US7985738B2, “Cytosine nucleoside analogs and isoflavones and uses thereof” (Institut National de la Recherche Scientifique, priority 2007, dated 2011)
